Measurements reported in patent US20260297085A1, “1 H-PYRROLO[2,3-B]PYRIDIN-4-YL]-2-OXOPYRROLIDINE-3-CARBONITRILE DERIVATIVES AS TYROSINE KINASE 2 (TYK2) INHIBITORS FOR THE TREATMENT OF INFLAMMATORY DISEASES” (BIOGEN MA INC., priority 2023, published 2026).
Structures can show the parent of a compound that is named as a salt.

Experiments:
[1] = biological target: JAK1 kinase activity on STAT3 in TF1 cells (Homo sapiens, UniProt P23458); assay: pSTAT3 cell assay (MSD; TF1 cells, 30 ng/mL IL-6 stimulation); assay type: cell-based; settings: 30 ng/mL IL-6, 15 minutes
Summary of the method: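 Serum starvation, 1 h compound (10 pt, 4-fold from 10 μM), IL-6 15 min, lysis. pSTAT3 read by MSD immunoassay, anti-STAT3 Abs. Normalized % activity vs log[cpd], 4-PL fit → IC50.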

[2] = biological target: T1, human JAK3 kinase domain (JH1) (Homo sapiens, UniProt P52333); assay: JH1 biochemical assay for JAK3 (ADP-Glo kinase assay, recombinant JH1 catalytic domain, JAK3-974 peptide, 4 μM ATP)
T1 construct: recombinantly generated catalytic kinase (also known as JH1) domain of human JAK1, JAK2, JAK3 and TYK2
Summary of the method: (§1)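 Luminescent ADP read-out after residual ATP depletion, 100 min reaction. Kinase domain concentrations were 4 nM (JAK1), 0.2 nM (JAK2), 0.3 nM (JAK3) and 2 nM (TYK2), each with 50 μM peptide. IC50 values came from 4-parameter logistic fits over 11 points, 3-fold steps, top 10 μM or 1 μM.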

[3] = biological target: T2, human TYK2 kinase domain (JH1) (Homo sapiens, UniProt P29597); assay: JH1 biochemical assay for TYK2 (ADP-Glo kinase assay, recombinant JH1 catalytic domain, JAK3-974 peptide, 10 μM ATP)
T2 construct: recombinantly generated catalytic kinase (also known as JH1) domain of human JAK1, JAK2, JAK3 and TYK2
T2 sequence (P29597 897-1176 limits assumed): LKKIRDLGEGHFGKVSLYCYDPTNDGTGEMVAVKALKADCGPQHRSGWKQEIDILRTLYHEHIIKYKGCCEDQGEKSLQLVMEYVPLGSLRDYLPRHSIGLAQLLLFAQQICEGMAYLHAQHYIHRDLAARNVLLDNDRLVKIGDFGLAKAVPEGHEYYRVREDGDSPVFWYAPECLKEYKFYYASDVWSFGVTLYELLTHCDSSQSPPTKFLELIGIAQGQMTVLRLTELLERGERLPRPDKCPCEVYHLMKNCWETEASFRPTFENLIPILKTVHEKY
Summary of the method: as §1

[4] = biological target: JAK2 kinase activity on STAT5 in TF1 cells (Homo sapiens, UniProt O60674); assay: pSTAT5 cell assay (MSD; TF1 cells, 30 ng/mL IL-3 stimulation); assay type: cell-based; settings: 30 ng/mL IL-3, 15 minutes
Summary of the method: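 IC50 from a 4-parameter logistic fit of normalized pSTAT5 signal, measured by MSD in lysates of TF1 cells. Cells were serum-starved, exposed to compound for 1 h (top concentration 10 μM, four-fold, 10 points), then given IL-3 at 30 ng/mL for 15 min.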

[5] = biological target: Tyk2 kinase activity on STAT4 in NK92 cells (Homo sapiens, UniProt P29597); assay: pSTAT4 cell assay (MSD; NK92 cells, 30 ng/mL IL2 stimulation); assay type: cell-based; settings: 30 ng/mL IL2, 15 minutes
Summary of the method: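 Compound treatment of starved NK92 cells ran 1 hr before a 15-minute, 30 ng/mL IL2 pulse; lysates went to an MSD anti-STAT4 antibody assay, with curves fitted by 4-parameter logistic model.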

[6] = biological target: T3, human JAK2 kinase domain (JH1) (Homo sapiens, UniProt O60674); assay: JH1 biochemical assay for JAK2 (ADP-Glo kinase assay, recombinant JH1 catalytic domain, JAK3-974 peptide, 15 μM ATP)
T3 construct: recombinantly generated catalytic kinase (also known as JH1) domain of human JAK1, JAK2, JAK3 and TYK2
Summary of the method: as §1

[7] = biological target: T4, human JAK1 kinase domain (JH1) (Homo sapiens, UniProt P23458); assay: JH1 biochemical assay for JAK1 (ADP-Glo kinase assay, recombinant JH1 catalytic domain, JAK3-342 peptide, 35 μM ATP)
T4 construct: recombinantly generated catalytic kinase (also known as JH1) domain of human JAK1, JAK2, JAK3 and TYK2
Summary of the method: as §1

T4 sequence (P23458 875-1153 limits assumed): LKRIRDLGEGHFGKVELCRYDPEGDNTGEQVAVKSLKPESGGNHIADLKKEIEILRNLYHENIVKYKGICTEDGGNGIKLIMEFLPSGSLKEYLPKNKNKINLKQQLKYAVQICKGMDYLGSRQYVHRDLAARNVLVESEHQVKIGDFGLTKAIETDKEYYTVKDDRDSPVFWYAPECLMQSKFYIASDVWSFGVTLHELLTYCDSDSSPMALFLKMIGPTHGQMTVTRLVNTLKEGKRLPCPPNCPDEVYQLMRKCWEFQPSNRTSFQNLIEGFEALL
JAK1 kinase activity on STAT3 in TF1 cells, sequence (P23458 whole entry): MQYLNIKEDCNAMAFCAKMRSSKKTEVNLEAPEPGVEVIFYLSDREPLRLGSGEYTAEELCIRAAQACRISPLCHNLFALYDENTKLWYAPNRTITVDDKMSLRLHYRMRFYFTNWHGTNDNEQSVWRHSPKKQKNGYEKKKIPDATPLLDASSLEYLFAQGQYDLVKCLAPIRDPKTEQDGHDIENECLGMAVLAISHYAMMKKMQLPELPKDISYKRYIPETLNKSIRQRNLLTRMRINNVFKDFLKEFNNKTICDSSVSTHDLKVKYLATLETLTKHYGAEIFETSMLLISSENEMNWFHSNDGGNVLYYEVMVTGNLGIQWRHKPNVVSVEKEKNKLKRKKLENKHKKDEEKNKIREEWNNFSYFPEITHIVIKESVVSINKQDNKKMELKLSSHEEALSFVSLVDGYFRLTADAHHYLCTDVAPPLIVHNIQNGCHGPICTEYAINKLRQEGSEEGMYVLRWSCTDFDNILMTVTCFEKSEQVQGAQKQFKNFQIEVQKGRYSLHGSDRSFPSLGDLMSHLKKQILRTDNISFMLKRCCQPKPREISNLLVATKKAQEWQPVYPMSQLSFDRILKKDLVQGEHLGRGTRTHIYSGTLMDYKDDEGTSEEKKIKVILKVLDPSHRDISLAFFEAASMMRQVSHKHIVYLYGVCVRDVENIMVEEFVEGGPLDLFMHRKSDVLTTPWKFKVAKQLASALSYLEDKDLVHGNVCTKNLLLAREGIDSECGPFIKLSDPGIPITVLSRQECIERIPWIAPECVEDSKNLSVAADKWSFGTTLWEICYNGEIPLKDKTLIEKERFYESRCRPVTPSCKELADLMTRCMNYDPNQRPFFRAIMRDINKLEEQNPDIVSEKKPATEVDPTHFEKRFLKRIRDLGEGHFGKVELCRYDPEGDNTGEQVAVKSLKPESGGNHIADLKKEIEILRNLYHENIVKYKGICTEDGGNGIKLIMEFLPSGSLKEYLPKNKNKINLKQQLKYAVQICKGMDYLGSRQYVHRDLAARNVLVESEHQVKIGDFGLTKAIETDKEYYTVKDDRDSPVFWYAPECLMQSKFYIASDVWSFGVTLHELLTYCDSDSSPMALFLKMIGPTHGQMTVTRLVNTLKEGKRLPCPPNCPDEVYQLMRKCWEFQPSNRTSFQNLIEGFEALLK
T3 sequence (O60674 849-1124 limits assumed): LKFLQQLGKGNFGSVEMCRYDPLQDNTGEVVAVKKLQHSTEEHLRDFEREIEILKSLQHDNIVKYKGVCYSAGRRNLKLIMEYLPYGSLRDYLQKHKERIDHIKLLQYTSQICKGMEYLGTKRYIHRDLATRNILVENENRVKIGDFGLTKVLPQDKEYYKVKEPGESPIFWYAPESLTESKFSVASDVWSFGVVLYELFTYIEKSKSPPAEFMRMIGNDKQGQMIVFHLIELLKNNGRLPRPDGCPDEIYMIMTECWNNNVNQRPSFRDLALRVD
JAK2 kinase activity on STAT5 in TF1 cells, sequence (O60674 whole entry): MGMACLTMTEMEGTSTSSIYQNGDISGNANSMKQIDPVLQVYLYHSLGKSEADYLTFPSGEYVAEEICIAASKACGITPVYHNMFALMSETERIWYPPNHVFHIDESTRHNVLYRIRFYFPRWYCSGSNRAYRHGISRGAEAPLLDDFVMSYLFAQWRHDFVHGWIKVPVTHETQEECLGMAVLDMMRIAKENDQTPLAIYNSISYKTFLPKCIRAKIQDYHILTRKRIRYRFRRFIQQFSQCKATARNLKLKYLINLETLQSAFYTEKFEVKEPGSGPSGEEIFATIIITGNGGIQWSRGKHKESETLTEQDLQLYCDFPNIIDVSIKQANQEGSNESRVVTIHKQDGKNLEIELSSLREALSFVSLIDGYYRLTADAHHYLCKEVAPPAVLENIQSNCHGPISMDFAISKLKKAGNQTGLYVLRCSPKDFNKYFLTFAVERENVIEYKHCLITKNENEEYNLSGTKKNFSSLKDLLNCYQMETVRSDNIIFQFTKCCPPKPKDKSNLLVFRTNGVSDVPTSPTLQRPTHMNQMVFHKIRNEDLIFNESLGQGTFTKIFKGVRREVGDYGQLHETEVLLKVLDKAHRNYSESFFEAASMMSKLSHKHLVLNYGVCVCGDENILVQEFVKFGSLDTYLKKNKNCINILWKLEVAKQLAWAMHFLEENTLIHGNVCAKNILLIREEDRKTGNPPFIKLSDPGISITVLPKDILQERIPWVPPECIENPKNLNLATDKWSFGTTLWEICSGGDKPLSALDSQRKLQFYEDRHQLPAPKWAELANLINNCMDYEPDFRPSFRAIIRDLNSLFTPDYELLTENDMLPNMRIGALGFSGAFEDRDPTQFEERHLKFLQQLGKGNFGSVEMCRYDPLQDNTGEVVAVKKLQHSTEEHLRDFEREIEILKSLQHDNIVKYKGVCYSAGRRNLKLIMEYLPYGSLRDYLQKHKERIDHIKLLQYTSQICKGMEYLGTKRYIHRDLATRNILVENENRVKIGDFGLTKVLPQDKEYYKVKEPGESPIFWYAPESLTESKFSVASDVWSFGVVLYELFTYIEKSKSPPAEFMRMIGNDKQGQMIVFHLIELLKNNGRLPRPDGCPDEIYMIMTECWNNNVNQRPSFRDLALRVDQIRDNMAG
Tyk2 kinase activity on STAT4 in NK92 cells, sequence (P29597 whole entry): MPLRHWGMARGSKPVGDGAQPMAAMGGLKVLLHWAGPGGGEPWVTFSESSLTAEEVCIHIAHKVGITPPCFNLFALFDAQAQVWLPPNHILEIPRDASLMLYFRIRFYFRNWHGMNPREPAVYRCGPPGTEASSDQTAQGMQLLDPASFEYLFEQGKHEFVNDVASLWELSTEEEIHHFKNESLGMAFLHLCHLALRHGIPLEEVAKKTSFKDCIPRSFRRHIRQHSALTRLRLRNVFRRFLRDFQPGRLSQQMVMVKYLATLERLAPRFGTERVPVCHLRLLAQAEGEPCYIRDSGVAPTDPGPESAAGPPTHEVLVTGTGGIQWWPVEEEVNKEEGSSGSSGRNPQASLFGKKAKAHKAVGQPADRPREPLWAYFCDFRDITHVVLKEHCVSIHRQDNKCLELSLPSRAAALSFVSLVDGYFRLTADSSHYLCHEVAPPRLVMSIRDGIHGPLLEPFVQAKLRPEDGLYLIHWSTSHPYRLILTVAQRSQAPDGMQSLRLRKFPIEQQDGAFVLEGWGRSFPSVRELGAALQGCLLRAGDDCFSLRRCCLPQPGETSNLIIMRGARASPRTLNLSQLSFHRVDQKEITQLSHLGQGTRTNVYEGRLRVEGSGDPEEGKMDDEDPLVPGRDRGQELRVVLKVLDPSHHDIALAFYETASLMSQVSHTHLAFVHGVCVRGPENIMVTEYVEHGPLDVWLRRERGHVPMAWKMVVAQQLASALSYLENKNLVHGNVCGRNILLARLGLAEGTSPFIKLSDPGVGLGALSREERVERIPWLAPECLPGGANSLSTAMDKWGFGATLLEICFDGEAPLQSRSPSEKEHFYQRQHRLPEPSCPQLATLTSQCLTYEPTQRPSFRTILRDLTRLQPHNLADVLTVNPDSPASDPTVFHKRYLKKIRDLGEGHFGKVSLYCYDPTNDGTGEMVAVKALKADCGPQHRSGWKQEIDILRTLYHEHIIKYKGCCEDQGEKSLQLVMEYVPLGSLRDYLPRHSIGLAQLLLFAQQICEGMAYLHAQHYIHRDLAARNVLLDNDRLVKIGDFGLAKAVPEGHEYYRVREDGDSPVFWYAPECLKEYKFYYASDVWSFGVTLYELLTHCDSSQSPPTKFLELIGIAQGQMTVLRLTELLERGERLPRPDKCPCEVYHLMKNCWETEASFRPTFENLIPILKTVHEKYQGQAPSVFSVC
T1 sequence (P52333 822-1111 limits assumed): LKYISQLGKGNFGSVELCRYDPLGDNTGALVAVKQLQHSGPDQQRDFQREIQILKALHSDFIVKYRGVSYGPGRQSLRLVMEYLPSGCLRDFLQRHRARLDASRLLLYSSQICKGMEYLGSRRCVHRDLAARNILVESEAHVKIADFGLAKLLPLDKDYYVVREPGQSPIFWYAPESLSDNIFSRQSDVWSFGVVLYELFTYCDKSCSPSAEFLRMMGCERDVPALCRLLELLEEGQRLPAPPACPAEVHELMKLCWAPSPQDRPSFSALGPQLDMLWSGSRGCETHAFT

Row | Structure (SMILES) | IC50 [1] [nM] | IC50 ([2]; JAK3 JH1, ADP-Glo) [nM] | IC50 ([3]; TYK2 JH1, ADP-Glo) [nM] | IC50 [4] [nM] | IC50 [5] [nM] | IC50 ([6]; JAK2 JH1, ADP-Glo) [nM] | IC50 ([7]; JAK1 JH1, ADP-Glo) [nM] | IC50 ([2]; JH1 kinase domain, ADP-Glo) [nM] | IC50 ([3]; JH1 kinase domain, ADP-Glo) [nM] | IC50 ([6]; JH1 kinase domain, ADP-Glo) [nM] | IC50 ([7]; JH1 kinase domain, ADP-Glo) [nM]
1 | C[C@@H]1CN(c2ccnn3cc(-c4ccc(F)nc4)cc23)C(=O)[C@]1(C#N)C1CC1 [Example 81, (3R,4S)-3-cyclopropyl-1-(6-(6-fluoropyridin-3-yl)pyrrolo[1,2-b]pyridazin-4-yl)-4-methyl-2-oxopyrrolidine-3-carbonitrile] | 5000 to 10000 | – | – | > 10000 | > 100 | – | – | 100 to 1000 | 5 to 20 | 100 to 1000 | 100 to 1000
2 | C[C@@H]1CN(c2nc(-c3ccc4c(cnn4C)c3)cn3nccc23)C(=O)[C@]1(C#N)C1CC1 [Example 225, (3R,4S)-3-cyclopropyl-4-methyl-1-(6-(1-methyl-1H-indazol-5-yl)pyrazolo[1,5-a]pyrazin-4-yl)-2-oxopyrrolidine-3-carbonitrile trifluoroacetate] | 1000 to 5000 | < 100 | < 5 | 1000 to 5000 | > 100 | 100 to 1000 | < 100 | – | – | – | –
3 | C[C@@H]1CN(c2ccnn3cc(-c4cc[nH]n4)cc23)C(=O)[C@]1(C#N)C1CC1 [Example 66, (3R,4S)-1-(6-(1H-pyrazol-3-yl)pyrrolo[1,2-b]pyridazin-4-yl)-3-cyclopropyl-4-methyl-2-oxopyrrolidine-3-carbonitrile trifluoroacetate] | 5000 to 10000 | – | – | > 10000 | > 100 | – | – | 100 to 1000 | 5 to 20 | 100 to 1000 | 100 to 1000
4 | C[C@@H]1CN(c2ccnn3cc(-c4cnn5c4CCC5)cc23)C(=O)[C@]1(C#N)C1CC1 [Example 171, (3R,4S)-3-cyclopropyl-1-(6-(5,6-dihydro-4H-pyrrolo[1,2-b]pyrazol-3-yl)pyrrolo[1,2-b]pyridazin-4-yl)-4-methyl-2-oxopyrrolidine-3-carbonitrile] | 5000 to 10000 | – | – | > 10000 | > 100 | – | – | 100 to 1000 | 5 to 20 | 100 to 1000 | 100 to 1000
5 | COc1cc(-c2cc3c(N4C[C@@H](C)[C@@](C#N)(C5CC5)C4=O)ccnn3c2)ccn1 [Example 65, (3R,4S)-3-cyclopropyl-1-(6-(2-methoxypyridin-4-yl)pyrrolo[1,2-b]pyridazin-4-yl)-4-methyl-2-oxopyrrolidine-3-carbonitrile] | 1000 to 5000 | – | – | > 10000 | 50 to 100 | – | – | 100 to 1000 | 5 to 20 | 100 to 1000 | 100 to 1000
6 | C[C@@H]1CN(c2nc(-c3cnc4c(c3)CCC(=O)N4)cn3nccc23)C(=O)[C@]1(C#N)C1CC1 [Example 204, (3R,4S)-3-cyclopropyl-4-methyl-2-oxo-1-(6-(7-oxo-5,6,7,8-tetrahydro-1,8-naphthyridin-3-yl)pyrazolo[1,5-a]pyrazin-4-yl)pyrrolidine-3-carbonitrile] | 1000 to 5000 | – | – | 1000 to 5000 | 50 to 100 | – | – | < 100 | < 5 | < 100 | < 100
7 | C[C@@H]1CN(c2ccnn3cc(-c4ccc(C#N)nc4)cc23)C(=O)[C@]1(C#N)C1CC1 [Example 86, 5-(4-((3R,4S)-3-cyano-3-cyclopropyl-4-methyl-2-oxopyrrolidin-1-yl)pyrrolo[1,2-b]pyridazin-6-yl)picolinonitrile trifluoroacetate] | 5000 to 10000 | – | – | > 10000 | > 100 | – | – | 100 to 1000 | 5 to 20 | 1000 to 5000 | 100 to 1000
8 | C[C@@H]1CN(c2nc(-c3cnn(C4COC4)c3)cn3ncc(F)c23)C(=O)[C@]1(C#N)C1CC1 [Example 291, (3R,4S)-3-cyclopropyl-1-(3-fluoro-6-(1-(oxetan-3-yl)-1H-pyrazol-4-yl)pyrazolo[1,5-a]pyrazin-4-yl)-4-methyl-2-oxopyrrolidine-3-carbonitrile] | 1000 to 5000 | < 100 | < 5 | 1000 to 5000 | 50 to 100 | < 100 | < 100 | – | – | – | –
9 | C[C@@H]1CN(c2ccnn3cc(-c4cccnc4F)cc23)C(=O)[C@]1(C#N)C1CC1 [Example 56, (3R,4S)-3-cyclopropyl-1-(6-(2-fluoropyridin-3-yl)pyrrolo[1,2-b]pyridazin-4-yl)-4-methyl-2-oxopyrrolidine-3-carbonitrile] | 5000 to 10000 | – | – | > 10000 | > 100 | – | – | 100 to 1000 | 5 to 20 | 100 to 1000 | 100 to 1000
10 | C[C@@H]1CN(c2nc(-c3cnn(C)c3)cn3ncc(Cl)c23)C(=O)[C@]1(C#N)C1CC1 [Example 206, (3R,4S)-1-(3-chloro-6-(1-methyl-1H-pyrazol-4-yl)pyrazolo[1,5-a]pyrazin-4-yl)-3-cyclopropyl-4-methyl-2-oxopyrrolidine-3-carbonitrile] | > 10000 | – | – | > 10000 | > 100 | – | – | 100 to 1000 | 5 to 20 | 100 to 1000 | 100 to 1000
11 | C[C@@H]1CN(c2nc(-c3cnn(C(F)F)c3)cn3ncc(F)c23)C(=O)[C@]1(C#N)C1CC1 [Example 189, (3R,4S)-3-cyclopropyl-1-(6-(1-(difluoromethyl)-1H-pyrazol-4-yl)-3-fluoropyrazolo[1,5-a]pyrazin-4-yl)-4-methyl-2-oxopyrrolidine-3-carbonitrile] | 1000 to 5000 | – | – | 1000 to 5000 | 50 to 100 | – | – | < 100 | < 5 | 100 to 1000 | < 100

Second part, the molecule after the results:

Row | IC50 [1] [nM] | IC50 ([2]; JAK3 JH1, ADP-Glo) [nM] | IC50 ([3]; TYK2 JH1, ADP-Glo) [nM] | IC50 [4] [nM] | IC50 [5] [nM] | IC50 ([6]; JAK2 JH1, ADP-Glo) [nM] | IC50 ([7]; JAK1 JH1, ADP-Glo) [nM] | IC50 ([2]; JH1 kinase domain, ADP-Glo) [nM] | IC50 ([3]; JH1 kinase domain, ADP-Glo) [nM] | IC50 ([6]; JH1 kinase domain, ADP-Glo) [nM] | IC50 ([7]; JH1 kinase domain, ADP-Glo) [nM] | Structure (SMILES)
12 | 100 to 1000 | 100 to 1000 | 5 to 20 | 5000 to 10000 | 50 to 100 | 100 to 1000 | < 100 | – | – | – | – | C[C@@H]1CN(c2nc(-c3ccnc(F)c3)cn3nccc23)C(=O)[C@]1(C#N)C1CC1 [Example 237, (3R,4S)-3-cyclopropyl-1-(6-(2-fluoropyridin-4-yl)pyrazolo[1,5-a]pyrazin-4-yl)-4-methyl-2-oxopyrrolidine-3-carbonitrile trifluoroacetate]
13 | 100 to 1000 | – | – | 100 to 1000 | 50 to 100 | – | – | < 100 | < 5 | < 100 | < 100 | C[C@@H]1CN(c2nc(-c3cnc4c(c3)CCN4)cn3nccc23)C(=O)[C@]1(C#N)C1CC1 [Example 215, (3R,4S)-3-cyclopropyl-1-(6-(2,3-dihydro-1H-pyrrolo[2,3-b]pyridin-5-yl)pyrazolo[1,5-a]pyrazin-4-yl)-4-methyl-2-oxopyrrolidine-3-carbonitrile]
14 | < 100 | < 100 | < 5 | 100 to 1000 | 20 to 50 | < 100 | < 100 | – | – | – | – | C[C@@H]1CN(c2nc(-c3cnn(C(F)F)c3)cc3ncsc23)C(=O)[C@]1(C#N)C1CC1 [Example 353, (3R,4S)-3-cyclopropyl-1-(6-(1-(difluoromethyl)-1H-pyrazol-4-yl)thiazolo[5,4-c]pyridin-4-yl)-4-methyl-2-oxopyrrolidine-3-carbonitrile]
15 | 100 to 1000 | < 100 | < 5 | 1000 to 5000 | > 100 | 100 to 1000 | < 100 | – | – | – | – | C[C@@H]1CN(c2nc(-c3cnn(C4(C)COC4)c3)cn3ncc(F)c23)C(=O)[C@]1(C#N)C1CC1 [Example 300, (3R,4S)-3-cyclopropyl-1-(3-fluoro-6-(1-(3-methyloxetan-3-yl)-1H-pyrazol-4-yl)pyrazolo[1,5-a]pyrazin-4-yl)-4-methyl-2-oxopyrrolidine-3-carbonitrile]
16 | 100 to 1000 | < 100 | < 5 | 1000 to 5000 | 50 to 100 | 100 to 1000 | < 100 | – | – | – | – | CC(=O)Nc1cc(-c2cn3nccc3c(N3C[C@@H](C)[C@@](C#N)(C4CC4)C3=O)n2)ccn1 [Example 228, N-(4-(4-((3R,4S)-3-cyano-3-cyclopropyl-4-methyl-2-oxopyrrolidin-1-yl)pyrazolo[1,5-a]pyrazin-6-yl)pyridin-2-yl)acetamide]
